Values joined by “and” are separate entries in the source; they are usually repeats but may differ in a detail not shown here. Identical values can stand only once.
Legend:
Assay in all cases: Kinase inhibition screen, cell-free 33P ATP assay at 10 μM
Format in all cases: biochemical
[1] = target: T1, 140 purified human kinases (Homo sapiens, UniProt O15530)
T1 sequence (O15530 1-556): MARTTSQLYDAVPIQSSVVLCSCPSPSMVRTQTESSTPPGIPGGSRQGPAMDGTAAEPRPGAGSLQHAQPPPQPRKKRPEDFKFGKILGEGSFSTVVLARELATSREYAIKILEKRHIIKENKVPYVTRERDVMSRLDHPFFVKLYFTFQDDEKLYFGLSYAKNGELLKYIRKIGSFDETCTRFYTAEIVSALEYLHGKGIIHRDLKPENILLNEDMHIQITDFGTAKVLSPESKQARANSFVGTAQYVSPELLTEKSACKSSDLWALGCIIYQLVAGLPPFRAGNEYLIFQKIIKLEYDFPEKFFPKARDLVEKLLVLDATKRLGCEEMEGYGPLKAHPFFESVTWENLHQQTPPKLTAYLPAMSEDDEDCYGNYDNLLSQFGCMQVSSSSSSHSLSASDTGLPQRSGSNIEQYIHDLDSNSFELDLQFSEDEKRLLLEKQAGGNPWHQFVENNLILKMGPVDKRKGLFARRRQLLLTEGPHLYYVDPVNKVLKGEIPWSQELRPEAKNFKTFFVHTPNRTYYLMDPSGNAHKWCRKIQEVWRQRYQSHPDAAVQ
Method in brief: (§1)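 Radiometric ^33P ATP cell-free format with purified enzymes; both complexes run at 10 μM in duplicate, results plotted on a kinome map via HGNC symbols.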

[2] = target: 140 purified human kinases (Homo sapiens, UniProt O43353)
140 purified human kinases (Homo sapiens, UniProt O43353), sequence (O43353 whole entry): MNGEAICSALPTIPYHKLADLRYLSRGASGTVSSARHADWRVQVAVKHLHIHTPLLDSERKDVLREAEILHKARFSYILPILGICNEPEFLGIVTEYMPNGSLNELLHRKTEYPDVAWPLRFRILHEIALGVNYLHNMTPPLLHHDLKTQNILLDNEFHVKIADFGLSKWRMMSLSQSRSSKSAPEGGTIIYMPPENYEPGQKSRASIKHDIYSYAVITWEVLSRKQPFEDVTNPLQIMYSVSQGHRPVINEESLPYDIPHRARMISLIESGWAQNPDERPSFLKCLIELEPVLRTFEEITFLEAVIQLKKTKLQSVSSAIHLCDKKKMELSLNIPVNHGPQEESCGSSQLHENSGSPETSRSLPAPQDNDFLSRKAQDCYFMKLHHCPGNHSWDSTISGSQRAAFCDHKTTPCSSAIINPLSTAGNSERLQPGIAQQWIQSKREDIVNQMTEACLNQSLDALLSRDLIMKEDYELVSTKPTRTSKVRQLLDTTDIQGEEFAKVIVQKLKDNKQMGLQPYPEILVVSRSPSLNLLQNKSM
Method in brief: as §1

[3] = target: 140 purified human kinases (Homo sapiens, UniProt P06239); conditions: Lck
140 purified human kinases (Homo sapiens, UniProt P06239), sequence (P06239 whole entry): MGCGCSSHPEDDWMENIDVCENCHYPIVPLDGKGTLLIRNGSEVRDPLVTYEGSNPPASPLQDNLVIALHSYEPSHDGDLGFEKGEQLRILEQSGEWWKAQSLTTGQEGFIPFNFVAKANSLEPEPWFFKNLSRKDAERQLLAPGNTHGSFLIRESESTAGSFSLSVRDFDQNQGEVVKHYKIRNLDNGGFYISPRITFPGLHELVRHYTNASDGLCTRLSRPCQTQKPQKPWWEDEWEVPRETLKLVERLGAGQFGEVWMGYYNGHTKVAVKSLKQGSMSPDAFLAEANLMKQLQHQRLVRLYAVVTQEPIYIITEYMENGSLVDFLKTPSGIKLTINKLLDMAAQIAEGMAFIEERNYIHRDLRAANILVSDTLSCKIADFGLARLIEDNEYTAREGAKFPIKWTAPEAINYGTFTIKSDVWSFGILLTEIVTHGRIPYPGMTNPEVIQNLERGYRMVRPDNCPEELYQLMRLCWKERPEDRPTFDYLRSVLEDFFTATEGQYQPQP
Method in brief: as §1

[4] = target: 140 purified human kinases (Homo sapiens, UniProt P49841); conditions: GSK3b
140 purified human kinases (Homo sapiens, UniProt P49841), sequence (P49841 whole entry): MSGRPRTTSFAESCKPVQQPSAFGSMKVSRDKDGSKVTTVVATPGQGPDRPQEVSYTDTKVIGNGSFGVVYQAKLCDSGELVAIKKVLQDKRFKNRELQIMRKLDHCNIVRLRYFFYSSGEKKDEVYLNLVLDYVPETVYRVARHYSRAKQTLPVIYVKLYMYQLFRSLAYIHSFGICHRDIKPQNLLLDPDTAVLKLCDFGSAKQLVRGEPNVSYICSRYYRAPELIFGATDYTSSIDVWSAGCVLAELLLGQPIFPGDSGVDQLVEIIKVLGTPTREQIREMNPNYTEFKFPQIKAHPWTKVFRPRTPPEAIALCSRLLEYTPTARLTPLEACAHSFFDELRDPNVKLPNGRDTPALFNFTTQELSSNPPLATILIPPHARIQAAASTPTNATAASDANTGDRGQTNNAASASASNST
Method in brief: as §1

[5] = target: 140 purified human kinases (Homo sapiens, UniProt P51812)
140 purified human kinases (Homo sapiens, UniProt P51812), sequence (P51812 whole entry): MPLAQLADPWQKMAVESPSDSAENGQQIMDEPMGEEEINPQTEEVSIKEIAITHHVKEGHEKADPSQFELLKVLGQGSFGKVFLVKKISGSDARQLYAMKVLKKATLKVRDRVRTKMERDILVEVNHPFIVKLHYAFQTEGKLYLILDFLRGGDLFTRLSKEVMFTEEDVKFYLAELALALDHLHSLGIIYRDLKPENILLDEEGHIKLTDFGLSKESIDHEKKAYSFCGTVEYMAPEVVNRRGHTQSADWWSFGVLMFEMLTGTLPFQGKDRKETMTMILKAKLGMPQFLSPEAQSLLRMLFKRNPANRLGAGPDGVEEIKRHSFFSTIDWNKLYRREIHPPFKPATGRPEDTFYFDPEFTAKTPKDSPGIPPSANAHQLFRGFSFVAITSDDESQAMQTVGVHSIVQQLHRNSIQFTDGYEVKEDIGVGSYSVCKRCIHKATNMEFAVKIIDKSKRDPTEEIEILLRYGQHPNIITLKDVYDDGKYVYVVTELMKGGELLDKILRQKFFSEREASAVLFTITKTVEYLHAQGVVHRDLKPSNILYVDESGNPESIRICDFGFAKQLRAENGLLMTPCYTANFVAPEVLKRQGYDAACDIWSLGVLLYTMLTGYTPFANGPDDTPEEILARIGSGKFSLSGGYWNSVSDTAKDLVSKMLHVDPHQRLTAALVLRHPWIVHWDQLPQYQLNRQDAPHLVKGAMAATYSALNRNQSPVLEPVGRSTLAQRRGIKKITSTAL
Method in brief: as §1

[6] = target: T2, 140 purified human kinases (Homo sapiens, UniProt P54762)
T2 sequence (P54762 18-984): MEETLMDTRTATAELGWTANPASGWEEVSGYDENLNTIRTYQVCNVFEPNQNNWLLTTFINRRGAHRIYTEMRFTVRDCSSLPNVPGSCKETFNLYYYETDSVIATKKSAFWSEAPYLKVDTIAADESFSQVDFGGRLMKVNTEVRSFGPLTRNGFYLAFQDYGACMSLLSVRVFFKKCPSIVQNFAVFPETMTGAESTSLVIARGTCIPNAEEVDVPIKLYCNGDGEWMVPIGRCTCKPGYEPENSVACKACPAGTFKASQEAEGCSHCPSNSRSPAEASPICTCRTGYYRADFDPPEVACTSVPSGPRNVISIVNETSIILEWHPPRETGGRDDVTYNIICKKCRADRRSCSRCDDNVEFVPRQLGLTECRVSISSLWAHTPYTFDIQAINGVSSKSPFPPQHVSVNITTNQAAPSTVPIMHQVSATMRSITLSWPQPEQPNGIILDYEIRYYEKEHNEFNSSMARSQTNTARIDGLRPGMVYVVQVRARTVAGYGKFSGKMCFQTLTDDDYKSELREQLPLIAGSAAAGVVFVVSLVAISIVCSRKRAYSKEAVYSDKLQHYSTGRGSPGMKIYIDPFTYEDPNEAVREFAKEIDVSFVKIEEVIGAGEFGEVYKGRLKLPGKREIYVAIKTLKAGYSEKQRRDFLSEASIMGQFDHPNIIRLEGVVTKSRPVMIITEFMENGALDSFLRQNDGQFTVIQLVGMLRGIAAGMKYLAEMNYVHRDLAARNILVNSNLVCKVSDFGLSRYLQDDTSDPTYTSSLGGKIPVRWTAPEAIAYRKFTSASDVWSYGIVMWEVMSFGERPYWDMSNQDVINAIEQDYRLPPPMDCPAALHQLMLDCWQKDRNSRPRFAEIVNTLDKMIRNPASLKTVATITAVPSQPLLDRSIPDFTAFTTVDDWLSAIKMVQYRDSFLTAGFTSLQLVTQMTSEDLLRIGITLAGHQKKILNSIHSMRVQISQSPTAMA
Method in brief: as §1

[7] = target: 140 purified human kinases (Homo sapiens, UniProt Q6IQ55)
140 purified human kinases (Homo sapiens, UniProt Q6IQ55), sequence (Q6IQ55 whole entry): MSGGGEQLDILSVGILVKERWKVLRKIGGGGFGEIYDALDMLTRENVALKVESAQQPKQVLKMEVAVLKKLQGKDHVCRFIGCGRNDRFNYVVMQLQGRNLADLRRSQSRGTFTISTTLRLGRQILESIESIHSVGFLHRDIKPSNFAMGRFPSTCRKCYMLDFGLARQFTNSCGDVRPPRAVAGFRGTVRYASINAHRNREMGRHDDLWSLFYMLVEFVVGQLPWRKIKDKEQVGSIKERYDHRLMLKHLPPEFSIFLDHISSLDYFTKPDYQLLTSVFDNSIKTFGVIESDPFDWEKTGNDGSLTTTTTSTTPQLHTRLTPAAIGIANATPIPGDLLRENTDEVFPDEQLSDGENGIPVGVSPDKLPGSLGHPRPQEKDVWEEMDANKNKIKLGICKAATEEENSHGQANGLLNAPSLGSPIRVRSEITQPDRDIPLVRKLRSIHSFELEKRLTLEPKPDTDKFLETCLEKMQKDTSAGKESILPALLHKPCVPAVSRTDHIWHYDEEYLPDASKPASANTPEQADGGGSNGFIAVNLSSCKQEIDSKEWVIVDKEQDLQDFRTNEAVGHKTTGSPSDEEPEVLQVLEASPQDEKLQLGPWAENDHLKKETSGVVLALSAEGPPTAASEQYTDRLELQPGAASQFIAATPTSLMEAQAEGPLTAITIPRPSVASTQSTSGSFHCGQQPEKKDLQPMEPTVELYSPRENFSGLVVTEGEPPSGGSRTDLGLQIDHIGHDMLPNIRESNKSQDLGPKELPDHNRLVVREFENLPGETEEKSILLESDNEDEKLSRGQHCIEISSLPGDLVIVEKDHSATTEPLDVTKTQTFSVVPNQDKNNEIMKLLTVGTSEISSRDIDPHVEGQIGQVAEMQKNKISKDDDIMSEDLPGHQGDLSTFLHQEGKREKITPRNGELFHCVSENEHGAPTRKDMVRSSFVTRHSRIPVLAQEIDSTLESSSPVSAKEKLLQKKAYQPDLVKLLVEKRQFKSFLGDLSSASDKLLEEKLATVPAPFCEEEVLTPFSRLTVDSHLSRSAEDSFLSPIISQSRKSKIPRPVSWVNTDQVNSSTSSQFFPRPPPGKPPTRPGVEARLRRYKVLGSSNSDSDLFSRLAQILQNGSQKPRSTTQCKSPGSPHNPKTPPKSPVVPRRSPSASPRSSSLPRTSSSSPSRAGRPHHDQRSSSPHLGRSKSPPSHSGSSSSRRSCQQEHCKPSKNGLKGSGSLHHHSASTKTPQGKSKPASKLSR
Method in brief: as §1

[8] = target: 140 purified human kinases (Homo sapiens, UniProt Q9Y6E0)
140 purified human kinases (Homo sapiens, UniProt Q9Y6E0), sequence (Q9Y6E0 whole entry): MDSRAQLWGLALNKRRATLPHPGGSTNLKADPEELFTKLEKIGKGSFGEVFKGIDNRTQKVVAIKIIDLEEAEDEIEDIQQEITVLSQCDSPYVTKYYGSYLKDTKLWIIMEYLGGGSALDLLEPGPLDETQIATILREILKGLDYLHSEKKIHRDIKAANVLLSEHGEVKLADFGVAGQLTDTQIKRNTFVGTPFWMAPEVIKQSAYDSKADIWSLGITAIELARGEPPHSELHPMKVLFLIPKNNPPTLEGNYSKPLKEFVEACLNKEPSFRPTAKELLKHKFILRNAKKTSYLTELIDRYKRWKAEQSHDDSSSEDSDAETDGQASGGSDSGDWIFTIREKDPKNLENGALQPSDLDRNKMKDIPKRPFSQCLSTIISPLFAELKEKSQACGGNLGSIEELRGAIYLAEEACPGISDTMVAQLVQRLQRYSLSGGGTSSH
Method in brief: as §1

For `CC(=O)[O-].CC(=O)[O-].CC(=O)[O-].CC(=O)[O-].CC(=O)[O-].CC(=O)[O-].[Zn+2].[Zn+2].[Zn+2].c1ccc(-c2csc(NCCN(CCNc3nc(-c4ccccn4)cs3)CCNc3nc(-c4ccccn4)cs3)n2)nc1.c1ccc(-c2csc(NCCN(CCNc3nc(-c4ccccn4)cs3)CCNc3nc(-c4ccccn4)cs3)n2)nc1` [[L2Zn3]6+], the “% Activation, Mean value” ([1]; PDK1) was 46%, the “% Inhibition, Mean” value ([1]; PDK1) was -46% and the mean % activity ([1]; PDK1) was 146%. The “% Activity Run 1” value ([1]; PDK1, 10 µM) was 131.0%, the “% Activity Run 2” value ([1]; PDK1, 10 µM) was 160.0% and the “% activity” value ([1]; PDK1, duplicate runs) was 131% and 160%. The “% Inhibition, Mean” value ([2]; RIPK2) was 5.55%, the “% Inhibition, Run 1 / Run 2” value ([2]; RIPK2) was 8% and 3% and the mean % activity ([2]; RIPK2) was 94%. For the same compound, the “% activity” value ([2]; RIPK2, duplicate runs) was 92% and 97%, the “% Inhibition, Mean” value [3] was 44% and the “% Inhibition, Run 1 / Run 2” value [3] was 51% and 36%. For the same compound, the mean % activity [3] was 56%, the “% activity” value ([3]; duplicate runs) was 49% and 64% and the “% Inhibition, Mean” value [4] was 16%. For the same compound, the “% Inhibition, Run 1 / Run 2” value [4] was 20% and 11%, the mean % activity [4] was 84% and the “% activity” value ([4]; duplicate runs) was 80% and 89%. The “% Inhibition, Mean” value ([5]; RSK2) was 44%, the “% Inhibition, Run 1 / Run 2” value ([5]; RSK2) was 50% and 39% and the mean % activity ([5]; RSK2) was 56%. For the same compound, the “% activity” value ([5]; RSK2, duplicate runs) was 50% and 61%, the “% Inhibition, Mean” value ([6]; EPH-B1) was -0.2% and the “% Inhibition, Run 1 / Run 2” value ([6]; EPH-B1) was 4% and -4.6%. The mean % activity ([6]; EPH-B1) was 100%, the “% activity” value ([6]; EPH-B1, duplicate runs) was 96% and 105% and the “% Activation, Mean value” ([7]; TTBK2) was 0.5%. The “% Inhibition, Mean” value ([7]; TTBK2) was -0.5%, the mean % activity ([7]; TTBK2) was 101% and the “% activity” value ([7]; TTBK2, duplicate runs) was 91% and 110%. For the same compound, the “% Inhibition, Mean” value ([8]; MST3) was 0.4%, the “% Inhibition, Run 1 / Run 2” value ([8]; MST3) was -3.6% and 4.4% and the mean % activity ([8]; MST3) was 100%. For the same compound, the “% activity” value ([8]; MST3, duplicate runs) was 104% and 96%.

With `[Cu+2].[Cu+2].[Cu+2].c1ccc(-c2csc(NCCN(CCNc3nc(-c4ccccn4)cs3)CCNc3nc(-c4ccccn4)cs3)n2)nc1.c1ccc(-c2csc(NCCN(CCNc3nc(-c4ccccn4)cs3)CCNc3nc(-c4ccccn4)cs3)n2)nc1` [[L2Cu3]6+] the “% Activation, Mean value” ([1]; PDK1) was 6.45%, the “% Inhibition Run 1” value ([1]; PDK1) was 12.4% and the “% Inhibition Run 2” value ([1]; PDK1) was -25.3%. For the same compound, the “% Inhibition, Mean” value ([1]; PDK1) was -6.45%, the mean % activity ([1]; PDK1) was 106% and the “% activity” value ([1]; PDK1, Run 1) was 87.6%. For the same compound, the “% activity” value ([1]; PDK1, Run 2) was 125.3%, the “% Inhibition Run 1” value ([2]; RIPK2) was 16.3% and the “% Inhibition Run 2” value ([2]; RIPK2) was 2.5%. The “% Inhibition, Mean” value ([2]; RIPK2) was 9%, the mean % activity ([2]; RIPK2) was 91% and the “% activity” value ([2]; RIPK2, Run 1) was 83.7%. For the same compound, the “% activity” value ([2]; RIPK2, Run 2) was 97.5%, the “% Inhibition Run 1” value [3] was 64.9% and the “% Inhibition Run 2” value [3] was 65.8%. The “% Inhibition, Mean” value [3] was 65%, the mean % activity [3] was 35% and the “% activity” value ([3]; Run 1) was 35.1%. For the same compound, the “% activity” value ([3]; Run 2) was 34.2%, the “% Inhibition Run 1” value [4] was 28.4% and the “% Inhibition Run 2” value [4] was 32.5%. The “% Inhibition, Mean” value [4] was 30%, the mean % activity [4] was 70% and the “% activity” value ([4]; Run 1) was 71.6%. For the same compound, the “% activity” value ([4]; Run 2) was 67.5%, the “% Inhibition Run 1” value ([5]; RSK2) was 87.4% and the “% Inhibition Run 2” value ([5]; RSK2) was 87.7%. For the same compound, the “% Inhibition, Mean” value ([5]; RSK2) was 88%, the mean % activity ([5]; RSK2) was 12% and the “% activity” value ([5]; RSK2, Run 1) was 12.6%. The “% activity” value ([5]; RSK2, Run 2) was 12.3%, the “% Activation, Mean value” ([6]; EPH-B1) was 14% and the “% Inhibition Run 1” value ([6]; EPH-B1) was -9.9%. For the same compound, the “% Inhibition Run 2” value ([6]; EPH-B1) was -17.3%, the “% Inhibition, Mean” value ([6]; EPH-B1) was -14% and the mean % activity ([6]; EPH-B1) was 114%. For the same compound, the “% activity” value ([6]; EPH-B1, Run 1) was 109.9%, the “% activity” value ([6]; EPH-B1, Run 2) was 117.3% and the “% Activity Run 1” value ([6]; EPH-B1, 10 µM) was 109.90%. The “% Activity Run 2” value ([6]; EPH-B1, 10 µM) was 117.30%, the “% Inhibition Run 1” value ([7]; TTBK2) was 13% and the “% Inhibition Run 2” value ([7]; TTBK2) was -12.2%. For the same compound, the “% Inhibition, Mean” value ([7]; TTBK2) was 0.4%, the mean % activity ([7]; TTBK2) was 100% and the “% activity” value ([7]; TTBK2, Run 1) was 87%. The “% activity” value ([7]; TTBK2, Run 2) was 112.2%, the “% Inhibition Run 1” value ([8]; MST3) was 9.9% and the “% Inhibition Run 2” value ([8]; MST3) was -5.7%. The “% Inhibition, Mean” value ([8]; MST3) was 2%, the mean % activity ([8]; MST3) was 98% and the “% activity” value ([8]; MST3, Run 1) was 90.1%. The “% activity” value ([8]; MST3, Run 2) was 105.7%.

From publication PMC8222254, “Self-assembly of an anion receptor with metal-dependent kinase inhibition and potent in vitro anti-cancer properties” (Nature Communications, 2021)
